Earlier results as cited in US11660346B2, “Engineered microparticles for macromolecule delivery” (University of Pittsburgh-Of the Commonwealth System of …, priority 2009, dated 2023).

Settings: parameter for polyanhydride disk prediction, FIG. 10

- CAmx (maximum solubility of agent) (aqueous): 2.184 mol/m^3
- kdis (intrinsic dissolution rate constant): 0.046 mol/m^3 s
SMILES: CCCCN1CCCCC1C(=O)Nc1c(C)cccc1C (centres unmarked) [bupivacaine]
